The values that follow come from patent publication EP1566447A1, “Glimepiride- and insulin-induced glycosylphosphatidylinositol-specific phospholipase C regulation” (priority 2004, dated 2005).

Test [1] deals with T1, lipoprotein lipase (LPL) (Bos taurus, UniProt P11151).
T1 construct: purchased Sigma/Aldrich (Deisenhofen, Germany); host or cells: bovine milk
T1 sequence (P11151 29-478): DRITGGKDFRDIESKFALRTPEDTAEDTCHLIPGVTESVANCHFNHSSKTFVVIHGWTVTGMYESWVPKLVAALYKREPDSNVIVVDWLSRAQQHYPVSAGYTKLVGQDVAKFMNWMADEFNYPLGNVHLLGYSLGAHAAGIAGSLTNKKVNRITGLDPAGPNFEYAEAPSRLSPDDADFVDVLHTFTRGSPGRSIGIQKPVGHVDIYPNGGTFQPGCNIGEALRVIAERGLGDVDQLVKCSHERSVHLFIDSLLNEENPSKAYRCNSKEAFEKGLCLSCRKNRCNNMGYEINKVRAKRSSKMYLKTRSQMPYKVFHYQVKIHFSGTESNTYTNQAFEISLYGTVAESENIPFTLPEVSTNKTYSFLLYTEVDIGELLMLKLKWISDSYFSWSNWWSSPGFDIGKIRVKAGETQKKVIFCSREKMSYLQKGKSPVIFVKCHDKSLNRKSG
Description: selectivity: lipoprotein lipase assay. It counts as biochemical, bovine. To be noted: 50 µM. On the procedure:
(§1) Hormone-sensitive lipase (HSL) and lipoprotein lipase (LPL) were measured using a radiolabeled triolein droplet emulsion as described in "Vertesy et al., (2002) Journal Antibiotics 55:480-494". Pancreatic lipase (PL) was determined by incubation of 0.25 mmol tributyrin in 2 ml of 5 mM Tris/HCl (pH 6.5), 6 mM sodium taurodeoxycholate, 150 mM NaCl, 1 mM CaCl2 with porcine PL and colipase in the same buffer using a recording pH stat (stirring at 1000 rpm at 25°C) with the pH adjusted to 6.5. PC-PLC was assayed by incubation of 0.2 ml of 10 mM dipalmitoyllecithin, 0.1 ml of 10 mM SDC and 0.1 ml of 0.03 M CaCl2 with bacterial PC-PLC (in 50 mM Tris/HCl, pH 7.5, 0.1 % BSA) for 10 min at 37°C. The reaction was terminated by addition of 0.1 ml of 50 % TCA and subsequently of 2.5 ml of […]. After centrifugation (1500xg, 15 min), 0.2-ml portions of the upper methanol/water phase (~ 1.33 ml) was removed, supplemented with 0.5 ml of 60 % HClO4, then heated at 170°C for 1 h and finally analyzed for inorganic phosphate. Mammalian PI-PLC was measured by incubation of 0.1 ml of 10 mM PI, 0.1 ml of 0.8 % sodium deoxycholate, 0.1 % BSA, 0.2 ml of 100 mM sodium borate (pH 7.5) and rat liver PI-PLC for 20 min at 37°C. The reaction was terminated and further processed as described for the PC-PLC. […] Radioactive phosphatidic acid was detected by phosphorimaging. […]

In test [2] the test system is cabbage PLD. Description: selectivity: PLD assay. To be noted: 50 µM. It counts as biochemical. On the procedure: as §1
Test [3] has as its system rat adipocytes. Description: isoproterenol-induced lipolysis measured as release of NBD-FA. The format is cell-based. To be noted: Rattus norvegicus, Adipocyte, given as 'up to', read-out: impairment of insulin inhibition of NBD-FA release. On the procedure: Electroporation was performed as described in "Müller, G. et al., (2000) Mol. Cell. Biol. 20: 4708-4723". Lipolysis was determined as release of glycerol or fluorescent NBD-FA from prelabeled and isoproterenol-stimulated adipocytes as described in "Müller, G. et al., (2003) Biochimie 85: 1245-1256". Gce1 was detected by photolabeling of solubilized plasma membranes or hc/IcDIGs (10-50 µg protein) with 8-N3-[^32P]cAMP and subsequent phosphorimaging as described in "Müller, G. et al., (1994) Biochemistry 33: 12149-12159". 5'-Nuc, aP and AChE activities were measured according to "Eliakim, R. et al., (1990) Biochim. Biophys. Acta […]". Protein was determined using the BCA protein determination kit from Pierce (Rockford, IL) and BSA as calibration standard. SDS-PAGE was performed using precast gels (Novex, San Diego, CA; 10 % Bis-Tris resolving gel, morpholinopropanesulfonic acid-SDS running buffer). Lumiimages were evaluated on a Lumilmager using Lumilmager software (Roche Diagnostics). Phosphor- and fluorescence images were processed and quantified using the Storm 860 Phosphorlmager system (Molecular Dynamics, Gelsenkirchen, Germany). Figures were constructed using the Adobe Photoshop software (Adobe Systems, Mountain View, CA). […]

For the molecule `CCCCCCCCCCCCP1(=O)O[C@@H]2[C@H](O)[C@@H](O)[C@H](O)[C@@H](O)[C@@H]2O1` (mixture of isomers) [GPI-2350, myo-inositol-1,2-cyclo-dodecylphosphonic acid], the “effect on lipase activity” value in test [1] is “not significantly affected”. The “effect on phospholipase activity” value in test [2] is on record as “not significantly affected”. Also, in test [3], the inhibition at 50 µM fell in the range of 25 to 30%.

The inhibition is the drop in the measured response relative to a control, in per cent.
